# Results reported in patent publication US8003082B2, “Photostable organic sunscreen composition” (Merck Patent GmbH, priority 2003, dated 2011).
# Assays:
# [1] = Photostabilization of Avobenzone in formulation, thin films between glass slides under UV-B light, loss in absorption; format: physicochemical
# Method: Photostabilization of Avobenzone (in formulation) was performed using thin films (about 50-100μ thick, transmission signals in the non-absorbing regions must be above 85%) of formulated materials placed between two glass slides and then irradiated under UV-B light (Q-U-V Accelerated Weather Tester, The Q Panel Company). Photodegradation of Avobenzone was calculated from the relative loss in absorption of Avobenzone in formulated products before and after irradiation. 1 hour irradiation under UV-B light is equal to about 1.4 MED (minimal erythemal dose). A Beckman Coulter DU-640 spectrophotometer at a scan speed of 120 nm/min was used for this study. All spectra were recorded from 200 to 600 nm.
# [2] = Solubility of Avobenzone in Oxynex ST + OMC on storage; format: physicochemical; parameters: key: Ppt = precipitate
# [3] = Solubility of Avobenzone in Oxynex ST + HMS on storage; format: physicochemical; parameters: key: Ppt = precipitate
# Method: The solubility of Avobenzone was tested in various ratios of Oxynex® ST and HMS.
# [4] = In vitro critical wavelength and SPF; conditions: Avobenzone (2%) in the presence of HMS (6%) and Oxynex ST (2%)
# Method: The target SPF range can be achieved with a combination of both inorganic and organic chromophoric compounds. SPF is determined by techniques well known in the art, on human skin as described in the Federal Register, Aug. 25, 1978, Vol. 43, No. 166, pages 38259-38269 (Sunscreen Drug Products for Over-The-Counter Human Use, Food and Drug Administration). SPF values can also be approximated using in-vitro models as described, for example, in J. Soc. Cosmet. Chem. 44:127-133 (May/June 1989).
# [5] = Diphenylpicryl Hydrazide (DPPH) antioxidant test; format: biochemical; conditions: DPPH test method
# Method: Di-2-ethylhexyl-3,5-dimethoxy-4-hydroxy-benzalmalonate is a yellow viscous liquid having a λmax at 332 nm (MeOH, εmax 18,600 cm^−1 mol^−1) or 337 nm (EtOH:H2O/70:30, εmax 19,840 cm^−1 mol^−1).
# A DPPH concentrate (2.5×) of 25 mg of 1,1-Diphenyl-2-Picyrl-Hydrazyl ACS#1898-66-4 (Sigma #D-9132, lot 99H3601) dissolved in 250 mL ethanol (USP), is prepared fresh on the measurement date. A DPPH working solution is then prepared by diluting 100 mL of this concentrate to a final volume of 250 mL (100 μM/mL). A blank 13×100 mm borosilicate glass screw top tube of ethanol (USP) is used to zero the spectrometer (Milton Roy, Spectronic 20+) at 517 nm and a control tube of DPPH working solution is measured under identical conditions, and taken as 0% activity. […] After 20 minutes, the absorbance of each sample is read at 517 nm.
# The percent reducing activity (% RA) is calculated using the following equation: […]
# Where A(0) is the absorbance value of the DPPH working solution at 517 nm zeroed against an ethanol blank and A(20) is the absorbance at 517 nm, 20 minutes after combining the antioxidant with the DPPH working solution.
# The concentration of antioxidant (mg/ml) in the final assay mixture is calculated based on the dilution of respective aliquots of each compound in the final assay volume and % RA tabulated and plotted as percent activity at each concentration in the dilution series: […]
compound,measurement,setting,value
"COc1ccc(C(=O)CC(=O)c2ccc(C(C)(C)C)cc2)cc1 [Avobenzone, 4-(tert-butyl)-4′-methoxydibenzoylmethane]",Avobenzone stability,[1],24%
same,Solubility of Avobenzone in the Oxynex ® ST Photostabilizer + OMC,"[2]; Avobenzone/Oxynex ST/OMC 20/20/60, storage 4° C., 1 week",Clear
same,Solubility of Avobenzone in the Oxynex ® ST Photostabilizer + OMC,"[2]; Avobenzone/Oxynex ST/OMC 20/20/60, storage 4° C., 2 weeks",Crystal?
same,Solubility of Avobenzone in the Oxynex ® ST Photostabilizer + OMC,"[2]; Avobenzone/Oxynex ST/OMC 20/20/60, storage 4° C., 48 hr",Clear
same,Solubility of Avobenzone in the Oxynex ® ST Photostabilizer + OMC,"[2]; Avobenzone/Oxynex ST/OMC 20/20/60, storage RT, 1 week",Clear
same,Solubility of Avobenzone in the Oxynex ® ST Photostabilizer + OMC,"[2]; Avobenzone/Oxynex ST/OMC 20/20/60, storage RT, 2 weeks",Clear
same,Solubility of Avobenzone in the Oxynex ® ST Photostabilizer + OMC,"[2]; Avobenzone/Oxynex ST/OMC 20/20/60, storage RT, 48 hr",Clear
same,Solubility of Avobenzone in the Oxynex ® ST Photostabilizer + OMC,"[2]; Avobenzone/Oxynex ST/OMC 25/25/50, storage 4° C., 1 week",Ppt
same,Solubility of Avobenzone in the Oxynex ® ST Photostabilizer + OMC,"[2]; Avobenzone/Oxynex ST/OMC 25/25/50, storage 4° C., 2 weeks",Ppt
same,Solubility of Avobenzone in the Oxynex ® ST Photostabilizer + OMC,"[2]; Avobenzone/Oxynex ST/OMC 25/25/50, storage 4° C., 48 hr",Clear
same,Solubility of Avobenzone in the Oxynex ® ST Photostabilizer + OMC,"[2]; Avobenzone/Oxynex ST/OMC 25/25/50, storage RT, 1 week",Clear
same,Solubility of Avobenzone in the Oxynex ® ST Photostabilizer + OMC,"[2]; Avobenzone/Oxynex ST/OMC 25/25/50, storage RT, 2 weeks",Crystal?
same,Solubility of Avobenzone in the Oxynex ® ST Photostabilizer + OMC,"[2]; Avobenzone/Oxynex ST/OMC 25/25/50, storage RT, 48 hr",Clear
same,Solubility of Avobenzone in the Oxynex ® ST Photostabilizer + OMC,"[2]; Avobenzone/Oxynex ST/OMC 30/20/50, storage 4° C., 48 hr",Few
same,Solubility of Avobenzone in the Oxynex ® ST Photostabilizer + OMC,"[2]; Avobenzone/Oxynex ST/OMC 30/20/50, storage RT, 48 hr",Few
same,Solubility of Avobenzone in the Oxynex ® ST Photostabilizer + HMS,"[3]; Avobenzone/Oxynex ST/HMS 15/15/70, storage 4° C., 1 week",Clear
same,Solubility of Avobenzone in the Oxynex ® ST Photostabilizer + HMS,"[3]; Avobenzone/Oxynex ST/HMS 15/15/70, storage 4° C., 2 weeks",Crystal?
same,Solubility of Avobenzone in the Oxynex ® ST Photostabilizer + HMS,"[3]; Avobenzone/Oxynex ST/HMS 15/15/70, storage 4° C., 3 weeks",Crystal?
same,Solubility of Avobenzone in the Oxynex ® ST Photostabilizer + HMS,"[3]; Avobenzone/Oxynex ST/HMS 15/15/70, storage 4° C., 6 weeks",Ppt
same,Solubility of Avobenzone in the Oxynex ® ST Photostabilizer + HMS,"[3]; Avobenzone/Oxynex ST/HMS 15/15/70, storage 4° C., 24 hr",Clear
same,Solubility of Avobenzone in the Oxynex ® ST Photostabilizer + HMS,"[3]; Avobenzone/Oxynex ST/HMS 15/15/70, storage RT, 1 week",Clear
same,Solubility of Avobenzone in the Oxynex ® ST Photostabilizer + HMS,"[3]; Avobenzone/Oxynex ST/HMS 15/15/70, storage RT, 2 weeks",Clear
same,Solubility of Avobenzone in the Oxynex ® ST Photostabilizer + HMS,"[3]; Avobenzone/Oxynex ST/HMS 15/15/70, storage RT, 3 weeks",Clear
same,Solubility of Avobenzone in the Oxynex ® ST Photostabilizer + HMS,"[3]; Avobenzone/Oxynex ST/HMS 15/15/70, storage RT, 6 weeks",Clear
same,Solubility of Avobenzone in the Oxynex ® ST Photostabilizer + HMS,"[3]; Avobenzone/Oxynex ST/HMS 15/15/70, storage RT, 24 hr",Clear
same,Solubility of Avobenzone in the Oxynex ® ST Photostabilizer + HMS,"[3]; Avobenzone/Oxynex ST/HMS 20/20/60, storage 4° C., 1 week",Clear
same,Solubility of Avobenzone in the Oxynex ® ST Photostabilizer + HMS,"[3]; Avobenzone/Oxynex ST/HMS 20/20/60, storage 4° C., 2 weeks",Crystal?
same,Solubility of Avobenzone in the Oxynex ® ST Photostabilizer + HMS,"[3]; Avobenzone/Oxynex ST/HMS 20/20/60, storage 4° C., 3 weeks",Crystal?
same,Solubility of Avobenzone in the Oxynex ® ST Photostabilizer + HMS,"[3]; Avobenzone/Oxynex ST/HMS 20/20/60, storage 4° C., 6 weeks",Ppt
same,Solubility of Avobenzone in the Oxynex ® ST Photostabilizer + HMS,"[3]; Avobenzone/Oxynex ST/HMS 20/20/60, storage 4° C., 24 hr",Clear
same,Solubility of Avobenzone in the Oxynex ® ST Photostabilizer + HMS,"[3]; Avobenzone/Oxynex ST/HMS 20/20/60, storage RT, 1 week",Clear
same,Solubility of Avobenzone in the Oxynex ® ST Photostabilizer + HMS,"[3]; Avobenzone/Oxynex ST/HMS 20/20/60, storage RT, 2 weeks",Clear
same,Solubility of Avobenzone in the Oxynex ® ST Photostabilizer + HMS,"[3]; Avobenzone/Oxynex ST/HMS 20/20/60, storage RT, 3 weeks",Clear
same,Solubility of Avobenzone in the Oxynex ® ST Photostabilizer + HMS,"[3]; Avobenzone/Oxynex ST/HMS 20/20/60, storage RT, 6 weeks",Clear
same,Solubility of Avobenzone in the Oxynex ® ST Photostabilizer + HMS,"[3]; Avobenzone/Oxynex ST/HMS 20/20/60, storage RT, 24 hr",Clear
same,Solubility of Avobenzone in the Oxynex ® ST Photostabilizer + HMS,"[3]; Avobenzone/Oxynex ST/HMS 25/25/50, storage 4° C., 1 week",Ppt
same,Solubility of Avobenzone in the Oxynex ® ST Photostabilizer + HMS,"[3]; Avobenzone/Oxynex ST/HMS 25/25/50, storage 4° C., 2 weeks",Ppt
same,Solubility of Avobenzone in the Oxynex ® ST Photostabilizer + HMS,"[3]; Avobenzone/Oxynex ST/HMS 25/25/50, storage 4° C., 3 weeks",Ppt
same,Solubility of Avobenzone in the Oxynex ® ST Photostabilizer + HMS,"[3]; Avobenzone/Oxynex ST/HMS 25/25/50, storage 4° C., 6 weeks",Ppt
same,Solubility of Avobenzone in the Oxynex ® ST Photostabilizer + HMS,"[3]; Avobenzone/Oxynex ST/HMS 25/25/50, storage 4° C., 24 hr",Clear
same,Solubility of Avobenzone in the Oxynex ® ST Photostabilizer + HMS,"[3]; Avobenzone/Oxynex ST/HMS 25/25/50, storage RT, 1 week",Clear
same,Solubility of Avobenzone in the Oxynex ® ST Photostabilizer + HMS,"[3]; Avobenzone/Oxynex ST/HMS 25/25/50, storage RT, 2 weeks",Crystal?
same,Solubility of Avobenzone in the Oxynex ® ST Photostabilizer + HMS,"[3]; Avobenzone/Oxynex ST/HMS 25/25/50, storage RT, 3 weeks",Ppt
same,Solubility of Avobenzone in the Oxynex ® ST Photostabilizer + HMS,"[3]; Avobenzone/Oxynex ST/HMS 25/25/50, storage RT, 6 weeks",Ppt
same,Solubility of Avobenzone in the Oxynex ® ST Photostabilizer + HMS,"[3]; Avobenzone/Oxynex ST/HMS 25/25/50, storage RT, 24 hr",Clear
same,Solubility of Avobenzone in the Oxynex ® ST Photostabilizer + HMS,"[3]; Avobenzone/Oxynex ST/HMS 30/30/40, storage 4° C., 1 week",Ppt
same,Solubility of Avobenzone in the Oxynex ® ST Photostabilizer + HMS,"[3]; Avobenzone/Oxynex ST/HMS 30/30/40, storage 4° C., 2 weeks",Ppt
same,Solubility of Avobenzone in the Oxynex ® ST Photostabilizer + HMS,"[3]; Avobenzone/Oxynex ST/HMS 30/30/40, storage 4° C., 3 weeks",Ppt
same,Solubility of Avobenzone in the Oxynex ® ST Photostabilizer + HMS,"[3]; Avobenzone/Oxynex ST/HMS 30/30/40, storage 4° C., 6 weeks",Ppt
same,Solubility of Avobenzone in the Oxynex ® ST Photostabilizer + HMS,"[3]; Avobenzone/Oxynex ST/HMS 30/30/40, storage 4° C., 24 hr",Clear
same,Solubility of Avobenzone in the Oxynex ® ST Photostabilizer + HMS,"[3]; Avobenzone/Oxynex ST/HMS 30/30/40, storage RT, 1 week",Ppt
same,Solubility of Avobenzone in the Oxynex ® ST Photostabilizer + HMS,"[3]; Avobenzone/Oxynex ST/HMS 30/30/40, storage RT, 2 weeks",Ppt
same,Solubility of Avobenzone in the Oxynex ® ST Photostabilizer + HMS,"[3]; Avobenzone/Oxynex ST/HMS 30/30/40, storage RT, 3 weeks",Ppt
same,Solubility of Avobenzone in the Oxynex ® ST Photostabilizer + HMS,"[3]; Avobenzone/Oxynex ST/HMS 30/30/40, storage RT, 6 weeks",Ppt
same,Solubility of Avobenzone in the Oxynex ® ST Photostabilizer + HMS,"[3]; Avobenzone/Oxynex ST/HMS 30/30/40, storage RT, 24 hr",Clear
same,SPF,[4],> 30
same,critical wavelength,[4],appropriate
"CCCCC(CC)COC(=O)C(=Cc1cc(OC)c(O)c(OC)c1)C(=O)OCC(CC)CCCC (stereo not drawn) [Oxynex ST, Di-(2-Ethylhexyl)-3,5-dimethoxy-4-hydroxy benzylidene malonate]",antioxidant activity (IC50),[5],85 ± 8 µg/mL
"CCCCC(CC)COC(=O)c1ccc2cc(C(=O)OCC(CC)CCCC)ccc2c1 (stereo not drawn) [TQ, Di-2-ethylhexyl-napthylate]",stabilization of Avobenzone,"[1]; combined with Homosalate, ratio (w/w) 2:6:2",failed to stabilize
same,effect on the photostabilization of Avobenzone,[1]; photostabilizer used alone,practically no effect
